Legend:
[1] = system: mouse alopecia areata model; assay: Symptom-suppressing effect on a mouse alopecia areata model (preventive protocol); format: in vivo, C3H/HeJ mice; conditions: for hair loss score (mean±standard error): Day 63, 10 mg/kg orally once daily Day 0 to Day 62, n=10, vehicle group 3.2±1.13; for range of hair loss (FIG. 1): abdomen on Day 63, compared with the disease group (vehicle treatment group), 10 mg/kg orally once daily
Method: The effect of cyclic amine derivative (I) or a pharmacologically acceptable salt thereof in a mouse alopecia areata model was evaluated using increase in the hair loss score as an index of worsening of symptoms. The mouse alopecia areata model was prepared by partially modifying the method by Wang et al. (Journal of Investigative Dermatology, 2015, Vol. 135, p. 2530-2532).
(§1) Female C3H/HeJ mice (CLEA Japan, Inc.) with spontaneous hair loss in 70% or more of the body surface were used as donor mice. The donor mice were euthanized by cervical dislocation, and then the inguinal, axilla, and auricular lymph nodes were aseptically removed. The lymph nodes were filtered through a 70 μm cell strainer to isolate lymphocytes. The lymphocytes were washed with Advanced RPMI media (containing 10% fetal bovine serum, 2 mM Gluta Max, and 100 U/mL penicillin streptomycin), and then suspended in Advanced RPMI media to which Human rIL-2 (Roche; final concentration of 30 U/mL), Mouse rIL-7 (R&D systems, Inc.; final concentration of 25 ng/mL), and Mouse rIL-15 (R&D systems, Inc.; final concentration of 50 ng/mL) were added so that the concentration was 2×10^6 cells/mL. The lymphocytes were seeded in 1 mL portions on 24-well plates, and 500 μL of Dynabead mouse T-activator CD3/CD28 (Life Technologies) was added, followed by culture in a CO2 incubator. Culture was performed for 6 days so that the cell density was 1.5 to 2.0×10^6 cells/mL during culture.
The day of transplantation of lymphocytes derived from donor mice was regarded as Day 0. Two days before the day of transplantation (Day −2), hair on the back, which would be a transplantation site, of 10-week old female C3H/HeJ mice without hair loss (CLEA Japan, Inc.) was removed with an electric hair clipper under isoflurane anesthesia (1.5 cm×1.5 cm). Furthermore, grouping was performed using the body weight on Day −1 as an index.
On Day 0, lymphocytes in which beads were removed with EasySep magnet (Stemcell Technologies Inc.) were collected into new tubes. The collected lymphocytes were suspended in PBS(−) so that the concentration was 10×10^7 cells/mL, filled in a 1 mL syringe with a 26G injection needle, and stored on ice until transplantation. Under isoflurane anesthesia, the filled lymphocyte suspension was intradermally injected into the hair removal site in 100 μL/body portions. […]
On Day 63, photographs of the back and the abdomen of the mice were taken under isoflurane anesthesia. The status of hair loss was evaluated by partially modifying the method by Alli et al. (Journal of Immunology, 2012, Vol. 188, p. 477-486). In other words, the ratio of the area of hair loss site to the body surface area was scored in accordance with the criteria mentioned in Table 4, and defined as the hair loss score. […]

[2] = system: mouse alopecia areata model; assay: Symptom-suppressing effect on a mouse alopecia areata model (therapeutic protocol); format: in vivo, C3H/HeJ mice; conditions: Day 91; 10 mg/kg orally once daily Day 49 to Day 90; n=6; vehicle group 9.2±0.83; Day 49 mean 3.6±0.66
Method: The effect of cyclic amine derivative (I) or a pharmacologically acceptable salt thereof in a mouse alopecia areata model was evaluated using increase in the hair loss score as an index of worsening of symptoms. The mouse alopecia areata model was prepared using the same method as in Example 73.
as §1, with “In other words, female” for “Female”, “The lymphocytes were seeded in 1 mL portions on 24-well plates, and 500 μL of Dynabead mouse T-activator CD3/CD28 (Life Technologies) was added, followed by culture in a CO2 incubator. Culture was performed for 6 days so that the cell density was 1.5 to 2.0×10^6 cells/mL during culture.” left out
On Day 49, grouping was performed using the mouse hair loss score calculated in the same manner as in Example 73 as an index (the hair loss score on Day 49 (mean±standard error): 3.6±0.66). […]
On Day 91, the mouse hair loss score was calculated in the same manner as in Example 73. […]

Row | SMILES | hair loss score (mean±standard error) [1] | range of hair loss (FIG. 1) [1] | hair loss score (mean±standard error) [2]
1 | CN(CC(=O)N1CCCC[C@@H]1C(=O)Nc1ccc(-c2ccccc2OC(F)(F)F)c(Cl)c1)S(C)(=O)=O [Compound of Example 29, (R)—N-(2-chloro-2′-(trifluoromethoxy)-[1,1′-biphenyl]-4-yl)-1-(2-(N-methylmethylsulfonamide)acetyl)piperidine-2-carboxamide] | 1.3±0.67 | very smaller | 4.3±1.41
2 | O=C(Nc1ccc(-c2ccccc2OC(F)(F)F)c(Cl)c1)[C@H]1CCCCN1C(=O)Cn1cnnn1 [Compound of Example 57, (R)-1-(2-(1H-tetrazol-1-yl)acetyl)-N-(2-chloro-2′-(trifluoromethoxy)-[1,1′-biphenyl]-4-yl)piperidine-2-carboxamide] | 1.8±0.88 | very smaller | 5.5±1.43

From US10881649B2, “Therapeutic agent or preventive agent for alopecia areata” (Toray Industries, Inc., priority 2017, dated 2021)
